Reference: patent US20100075334A1, “METHYLATION BIOMARKER FOR EARLY DETECTION OF GASTRIC CANCER” (priority 2007, published 2010)

System: gastric cancer cell lines, SNU001, SNU601, and SNU668
Assay: Reactivation analysis of silenced genes by drug treatment (RT-PCR)
Type: cell-based, human
Details: for number of selected genes restored (summary): 5-aza and/or TSA treatment, of 26 epigenetic targets; for number of selected genes restored in the corresponding inactivated cells: after 5-Aza-dC and/or TSA treatment, gene-specific or cell-specific mode
Method: To examine the correspondence between NotI-methylation and gene silencing at the neighboring region of the NotI site, RT-PCR analysis was performed for each selected gene with RNA of gastric cancer cell line. Reverse transcription using 5 μg of DNase-treated RNA was done using Superscript II reverse transcriptase (Invitrogen) in a reaction volume of 20 μL. One μL of the reverse transcription reaction was used for amplification using Platinum Taq DNA polymerase (Invitrogen). Amplification was done as follows: denaturation at 94° C. for 30 s, annealing at a primer specific annealing temperature for 30 s and extension at 72° C. for 45 s. All reactions were performed on a GeneAmp PCR System 9700 (Perkin-Elmer Corp.). Five μL of the PCR product were run on a 0.8% agarose gel and visualized by EtBr staining. GAPDH gene was used as a control for comparison of the amount of reverse transcribed template in each sample.
Three gastric cancer cell lines, SNU001, SNU601, and SNU668, were treated with 5-aza-2′-deoxycytidine (5-Aza-dC; Sigma) as a demethylating agent and 5-Aza-dC and trichostatin A (TSA; Sigma) as a HDAC inhibitor to examine the restoring of selected genes in those cells. Each cell was plated at a density of 1×10^5 cells/100-mm dish and cultures for 24 h, followed by 72 h culture with 1 μM 5-Aza-dC. Other cells were also followed by 24 h culture with 250 nM TSA or 72 h 5-Aza-dC-treated cells for another 24 h. RNA was prepared and RT-PCR analysis was then performed using gene-specific primer set as described above. GAPDH gene was also used as a control.
For the selected 22 genes, reactivation analysis was examined in three gastric cancer cell lines by 5-Aza-dC and/or TSA treatment.

In the case of `Nc1ncn([C@H]2C[C@H](O)[C@@H](CO)O2)c(=O)n1` [5-Aza-dC, 5-aza-2′-deoxycytidine], the “number of selected genes restored (summary)” value is reported as 23 of 26, the “number of selected genes restored in the corresponding inactivated cells” value is reported as 22 genes and the “restoration of expression of POPDC3, NACM2, PRKD1 and AMPD3” value (three gastric cancer cell lines, 1 μM 5-Aza-dC 72 h, RT-PCR, restored only by 5-Aza-dC) is reported as “restored in two or three corresponding inactivated cells”.

In the case of `CC(/C=C/C(=O)NO)=C\[C@@H](C)C(=O)c1ccc(N(C)C)cc1` [TSA, trichostatin A], the “number of selected genes restored (summary)” value is reported as 23 of 26 and the “number of selected genes restored in the corresponding inactivated cells” value is reported as 22 genes.
